Measurements taken from ChEMBL document CHEMBL1127146, “Synthesis and antitumor activity of a new class of pyrazolo[4,3-e]pyrrolo[1,2-a][1,4]diazepinone analogs of pyrrolo[1,4]benzodiazepines (PBDs)” (Bioorg Med Chem Lett, 1993).
Calls of active or inactive are those of the source. No cut-off for these calls is given here.

Test system: L1210
Test: Antitumor activity was evaluated in vitro on a L1210 tumor cell line; IA means inactive
Format: functional, cell-based
Details: Mus musculus

Question: For `CSC1=Nc2c(nn(C)c2C)C(=O)N2CCC[C@@H]12`, which Activity is on record?
Answer: inactive

Question: For `CSC1=Nc2c(C)nn(C)c2C(=O)N2CCC[C@@H]12`, which Activity is on record?
Answer: inactive

Question: For `Cc1c2c(nn1C)C(=O)N1CCC[C@H]1CN2`, which Activity is on record?
Answer: inactive

Question: For `Cc1nn(C)c2c1NC[C@@H]1CCCN1C2=O`, which Activity is on record?
Answer: inactive

Test system: L1210
Test: Antitumor activity was evaluated in vitro on a L1210 tumor cell line
Format: functional, cell-based
Details: Mus musculus

Question: How did the IC50 turn out when `Cc1c2c(nn1C)C(=O)N1CCC[C@H]1C=N2` was run?
Answer: 8.84 µM

Question: For `Cc1nn(C)c2c1N=C[C@@H]1CCCN1C2=O`, which IC50 is on record?
Answer: 22.4 µM
